Data reported in PubChem BioAssay AID1259407 (Chemical Carcinogenesis Research Information System (CCRIS), 2018).
Activity calls are given as the source filed them. No rule for the calls is given here.

Test system: CCRIS mutagenicity, Ames/micronucleus/aberration tests
Test: CCRIS mutagenicity studies
[1] = Test System: AMES SALMONELLA TYPHIMURIUM, Strain/Indicator: TA98, Metabolic Activation: HAMSTER, LIVER, S-9, AROCLOR 1254, Method: STANDARD PLATE
[2] = Test System: AMES SALMONELLA TYPHIMURIUM, Strain/Indicator: TA98, Metabolic Activation: NONE, Method: STANDARD PLATE
[3] = Test System: AMES SALMONELLA TYPHIMURIUM, Strain/Indicator: TA98, Metabolic Activation: RAT, LIVER, S-9, AROCLOR 1254, Method: STANDARD PLATE
[4] = Test System: AMES SALMONELLA TYPHIMURIUM, Strain/Indicator: TA100, Metabolic Activation: HAMSTER, LIVER, S-9, AROCLOR 1254, Method: STANDARD PLATE
[5] = Test System: AMES SALMONELLA TYPHIMURIUM, Strain/Indicator: TA100, Metabolic Activation: NONE, Method: STANDARD PLATE
[6] = Test System: AMES SALMONELLA TYPHIMURIUM, Strain/Indicator: TA100, Metabolic Activation: RAT, LIVER, S-9, AROCLOR 1254, Method: STANDARD PLATE
[7] = Test System: AMES SALMONELLA TYPHIMURIUM, Strain/Indicator: TA1535, Metabolic Activation: HAMSTER, LIVER, S-9, AROCLOR 1254, Method: STANDARD PLATE
[8] = Test System: AMES SALMONELLA TYPHIMURIUM, Strain/Indicator: TA1535, Metabolic Activation: NONE, Method: STANDARD PLATE
[9] = Test System: AMES SALMONELLA TYPHIMURIUM, Strain/Indicator: TA1535, Metabolic Activation: RAT, LIVER, S-9, AROCLOR 1254, Method: STANDARD PLATE
[10] = Test System: AMES SALMONELLA TYPHIMURIUM, Strain/Indicator: TA1537, Metabolic Activation: HAMSTER, LIVER, S-9, AROCLOR 1254, Method: STANDARD PLATE
[11] = Test System: AMES SALMONELLA TYPHIMURIUM, Strain/Indicator: TA1537, Metabolic Activation: NONE, Method: STANDARD PLATE
[12] = Test System: AMES SALMONELLA TYPHIMURIUM, Strain/Indicator: TA1537, Metabolic Activation: RAT, LIVER, S-9, AROCLOR 1254, Method: STANDARD PLATE
[13] = Test System: AMES SALMONELLA TYPHIMURIUM, Strain/Indicator: TA1538, Metabolic Activation: NONE, Method: STANDARD PLATE
[14] = End Point: IN VITRO CHROMOSOMAL ABERRATIONS, Test System: CHO CELLS, Metabolic Activation: NONE

Row | Compound | mutagenic call [1] | mutagenic call [2] | mutagenic call [3] | mutagenic call [4] | mutagenic call [5] | mutagenic call [6] | mutagenic call [7] | mutagenic call [8] | mutagenic call [9] | mutagenic call [10] | mutagenic call [11] | mutagenic call [12] | mutagenic call [13] | mutagenic call [14] | also measured
1 | C[C@@H]1CC[C@@]2(OC1)O[C@H]1C[C@H]3[C@@H]4CC=C5C[C@@H](O)CC[C@]5(C)[C@H]4CC[C@]3(C)[C@H]1[C@@H]2C | inactive; negative | inactive; negative | inactive; negative | inactive; negative | inactive; negative | inactive; negative | inactive; negative | inactive; negative | inactive; negative | inactive; negative | inactive; negative | inactive; negative | inactive; negative | – | mutagenic call (Test System: AMES SALMONELLA TYPHIMURIUM, Strain/Indicator: TA1538, Metabolic Activation: HAMSTER, LIVER, S-9, AROCLOR 1254, Method: STANDARD PLATE): inactive; negative; mutagenic call (Test System: AMES SALMONELLA TYPHIMURIUM, Strain/Indicator: TA1538, Metabolic Activation: RAT, LIVER, S-9, AROCLOR 1254, Method: STANDARD PLATE): inactive; negative
2 | Nc1cc2c(cc1[N+](=O)[O-])[nH]c1ccccc12 | – | active; positive | – | – | active; positive | – | – | – | – | – | active; positive | – | active; positive | – | mutagenic call (Test System: AMES SALMONELLA TYPHIMURIUM, Strain/Indicator: TA98, Metabolic Activation: RAT, LIVER, S-9, PHENOBARBITAL, Method: STANDARD PLATE): active; positive; mutagenic call (Test System: AMES SALMONELLA TYPHIMURIUM, Strain/Indicator: TA100, Metabolic Activation: RAT, LIVER, S-9, PHENOBARBITAL, Method: STANDARD PLATE): active; positive; mutagenic call (Test System: AMES SALMONELLA TYPHIMURIUM, Strain/Indicator: TA1537, Metabolic Activation: RAT, LIVER, S-9, PHENOBARBITAL, Method: STANDARD PLATE): active; positive; mutagenic call (Test System: AMES SALMONELLA TYPHIMURIUM, Strain/Indicator: TA1538, Metabolic Activation: RAT, LIVER, S-9, PHENOBARBITAL, Method: STANDARD PLATE): active; positive; mutagenic call (Test System: AMES SALMONELLA TYPHIMURIUM, Strain/Indicator: TA1977, Metabolic Activation: NONE, Method: STANDARD PLATE): active; positive; mutagenic call (Test System: AMES SALMONELLA TYPHIMURIUM, Strain/Indicator: TA1977, Metabolic Activation: RAT, LIVER, S-9, PHENOBARBITAL, Method: STANDARD PLATE): active; positive
3 | C=CCOC(=O)CC(C)C | – | – | – | – | – | – | – | – | – | – | – | – | – | inactive; negative | mutagenic call (Test System: AMES SALMONELLA TYPHIMURIUM, Strain/Indicator: TA98, Metabolic Activation: HAMSTER, LIVER, S-9, AROCLOR 1254, Method: PREINCUBATION): inactive; negative; mutagenic call (Test System: AMES SALMONELLA TYPHIMURIUM, Strain/Indicator: TA98, Metabolic Activation: NONE, Method: PREINCUBATION): inactive; negative; mutagenic call (Test System: AMES SALMONELLA TYPHIMURIUM, Strain/Indicator: TA98, Metabolic Activation: RAT, LIVER, S-9, AROCLOR 1254, Method: PREINCUBATION): inactive; negative; mutagenic call (Test System: AMES SALMONELLA TYPHIMURIUM, Strain/Indicator: TA100, Metabolic Activation: HAMSTER, LIVER, S-9, AROCLOR 1254, Method: PREINCUBATION): inactive; negative; mutagenic call (Test System: AMES SALMONELLA TYPHIMURIUM, Strain/Indicator: TA100, Metabolic Activation: NONE, Method: PREINCUBATION): inactive; negative; mutagenic call (Test System: AMES SALMONELLA TYPHIMURIUM, Strain/Indicator: TA100, Metabolic Activation: RAT, LIVER, S-9, AROCLOR 1254, Method: PREINCUBATION): inactive; negative; mutagenic call (Test System: AMES SALMONELLA TYPHIMURIUM, Strain/Indicator: TA1535, Metabolic Activation: HAMSTER, LIVER, S-9, AROCLOR 1254, Method: PREINCUBATION): inactive; negative; mutagenic call (Test System: AMES SALMONELLA TYPHIMURIUM, Strain/Indicator: TA1535, Metabolic Activation: NONE, Method: PREINCUBATION): inactive; negative; mutagenic call (Test System: AMES SALMONELLA TYPHIMURIUM, Strain/Indicator: TA1535, Metabolic Activation: RAT, LIVER, S-9, AROCLOR 1254, Method: PREINCUBATION): inactive; negative; mutagenic call (Test System: AMES SALMONELLA TYPHIMURIUM, Strain/Indicator: TA1537, Metabolic Activation: HAMSTER, LIVER, S-9, AROCLOR 1254, Method: PREINCUBATION): inactive; negative; mutagenic call (Test System: AMES SALMONELLA TYPHIMURIUM, Strain/Indicator: TA1537, Metabolic Activation: NONE, Method: PREINCUBATION): inactive; negative; mutagenic call (Test System: AMES SALMONELLA TYPHIMURIUM, Strain/Indicator: TA1537, Metabolic Activation: RAT, LIVER, S-9, AROCLOR 1254, Method: PREINCUBATION): inactive; negative
4 | Oc1cccc(Cl)c1 | – | active; positive | active; positive | – | active; positive | inactive; negative | – | – | – | – | – | – | – | – | mutagenic call (Test System: AMES SALMONELLA TYPHIMURIUM, Strain/Indicator: TA97, Metabolic Activation: NONE, Method: STANDARD PLATE): active; positive; mutagenic call (Test System: AMES SALMONELLA TYPHIMURIUM, Strain/Indicator: TA97, Metabolic Activation: RAT, LIVER, S-9, AROCLOR 1254, Method: STANDARD PLATE): active; positive; mutagenic call (Test System: AMES SALMONELLA TYPHIMURIUM, Strain/Indicator: TA104, Metabolic Activation: NONE, Method: STANDARD PLATE): inactive; negative; mutagenic call (Test System: AMES SALMONELLA TYPHIMURIUM, Strain/Indicator: TA104, Metabolic Activation: RAT, LIVER, S-9, AROCLOR 1254, Method: STANDARD PLATE): inactive; negative
5 | CC1(C)SC2[C@H](NC(=O)C(N)c3ccccc3)C(=O)N2[C@H]1C(=O)O.[Cl][Pt].[H+] (stereo partly specified) | – | – | – | – | – | – | – | – | – | – | – | – | – | – | mutagenic call (Test System: MOUSE LYMPHOMA, Strain/Indicator: L5178Y(LY-R) (HGPRT)/6-THIOGUANINE, Metabolic Activation: NONE): inactive; negative
6 | CCCCC(CC)COP(=O)(OCC(CC)CCCC)OCC(CC)CCCC (stereo unspecified) | inactive; negative | inactive; negative | inactive; negative | inactive; negative | inactive; negative | inactive; negative | inactive; negative | inactive; negative | inactive; negative | inactive; negative | inactive; negative | inactive; negative | – | inactive; negative | mutagenic call (End Point: IN VITRO CHROMOSOMAL ABERRATIONS, Test System: CHO CELLS, Metabolic Activation: RAT, LIVER, S-9, AROCLOR 1254): inactive; negative
